Measurements as given in patent US7579356B2, “Thia-tetraazaacenaphthylene kinase inhibitors” (Janssen Pharmaceutica NV, priority 2005, dated 2009).

Experiments:
HER-2 = molecular target: T1, HER-2 (Homo sapiens, UniProt P04626); test: HER-2 Kinase Assay; type: biochemical; details: for IC50: value in parentheses; for inhibition at 1 µM: test concentration of 1 μM
T1 construct: His6 with thrombin site (N); purchased Proqinase (Freiburg, Germany)
Protocol: The HER-2 kinase used was purified at Proqinase (Freiburg, Germany) from a construct that consisted of a fusion of GST (Glutathione-S-Transferase), HIS6-Thrombin and the nucleotides encoding amino acids 679 to 1255 of HER-2 (Accession Number M11730).
A mixture of a 10× kinase reaction buffer (600 mM Hepes at pH 7.5, 30 mM Magnesium Chloride, 0.03 mM Sodium Vanadate and 500 μg/mL PEG 20,000), DTT (1.2 mM final from a 10 mM stock), APT (1 μM from a 10 mM stock), biotinylated polyGluTyr (1.5 ng/μL final from stock of 1 μg/μL) prepared by Upstate Biotechnologies, Lake Placid, N.Y.), Manganese Chloride (3 mM final from a 1 M stock), γ-^33P-ATP (10 μCl/μL stock) and water (70 μL/well) was added to each well of a Streptavidin Flashplate (Cat. # SMP103, NEN, Boston, Mass.).
Test compound stock (1 μL) was added to the appropriate wells. Diluted GSTHER2 kinase (6.7 ng/μL diluted into 50 mM Tris-HCl at pH 8.0 and 0.1% bovine serum albumin) (30 μL) was added (total volume of 200 ng/well) to initiate the reactions.
The reaction plates were incubated at 30° C. for 1 hr. The reaction was terminated by aspirating the reaction mixture from the plate wells and washing the wells three times with a 1×PBS stop buffer (300 μL) and 100 mM EDTA. After the final wash, the same stop buffer (200 μL) was again added to the wells. The plates were then sealed and read on the TopCount scintillation counter.
The Her-2 inhibition values were derived according to the procedure described in Example 164 and are shown as percent in Table 4 at a test concentration of 1 μM. For those compounds with an IC50, the IC50 value in μM is shown in parentheses. For compounds with multiple test values, each value represents a separate assay result.

EGFR = molecular target: T2, EGFR (Homo sapiens, UniProt P00533); test: EGFR Kinase Assay; type: biochemical; details: for IC50: GST-EGFR, ATP 5 μM; for inhibition at 2 µM: test concentration of 2 μM, compounds without an IC50, read-out: EGFR inhibition in percent
T2 construct: The intracellular portion of EGFR started at nucleotide 2189 (corresponding to amino acid 667) and ended at the termination codon; made in house; host or cells: Sf9 insect cells (baculovirus)
Description: The EGFR kinase used was a fusion of Glutathione-S-Transferase (GST) and a PCR amplified intracellular portion of EGFR (Accession Number NM_005228). The intracellular portion of EGFR started at nucleotide 2189 (corresponding to amino acid 667) and ended at the termination codon. The portion was PCR amplified with primers that added the lambda attB sequences to each end, recombined into an entry vector, then into a GST destination vector (as described in Gateway Technologies Manual by Invitrogen Corporation, Carlsbad, Calif.).
The destination vector was recombined in the DH10BAC strain of bacteria to produce a bacmid. The bacmid was transfected into Sf 9 cells and the supernatant containing the baculovirus was collected. The GSTEGFR protein was purified using large cultures of Sf 9 cells infected with stock virus. After an appropriate period of time, the cells were collected and lysed. The GSTEGFR was then purified from the lysate on Glutathione-Sepharose columns (as described by Amersham Biosciences, Buckinghamshire, United Kingdom).
The EGFR substrate was prepared by biotinylating polyGluTyr (128 mg) (Sigma, St. Louis, Mo.) in a 1×PBS buffer incubated together with a 12-fold molar excess of Sulfo-NHS-LC-Biotin on ice for at least 2 hrs. The free biotin was separated from the biotinylated polyGluTyr on a gel filtration column.
A mixture of a 10× kinase buffer (500 mM Tris at pH 8.0, 100 mM Magnesium Chloride and 1 mM Sodium Vanadate), DTT (1 mM final from 500 mM stock), ATP (5 μM final from 10 mM stock), biotinylated polyGluTyr (10 μg/μL stock), γ-^33P ATP (10 μCl/μL stock) and water was added to each well (for a total of 90 μL/well) of a Streptavidin Flashplate (Perkin Elmer, Wellesley, Mass.).
Test compound in 100% DMSO (2 μL) was added to the appropriate wells. Diluted GSTEGFR (1:300 dilution in 50 mM Tris at pH 8.0 and 0.1% bovine serum albumin) (10 μL) was added to the wells to initiate the reactions.
The plates were incubated at 30° C. for 1 hr with shaking. The reacted contents were removed and the plates were sequentially washed three times with a 1×PBS stop buffer (300 μL without Magnesium and Calcium) and 100 mM EDTA. After the final wash, the same stop buffer (200 μL) was added to the wells. The plates were then sealed and read on the TopCount scintillation counter.
Test compounds were assayed in triplicate at 16 concentrations at half-log dilutions starting at 200 uM. A maximum and minimum signal for the assay was determined on each plate. The percent inhibition of a test compound was calculated according to the formula: […]
For a series of test concentrations, the IC50 was derived by graphing percent inhibition against the log of the concentrations tested for a given compound. For those compounds without an IC50, the inhibition values in percent are shown at a test concentration of 2 μM. For compounds with multiple values, each value represents a separate assay result.

Compound	IC50 (HER-2) [nM]	IC50 (EGFR) [nM]	inhibition at 1 µM (HER-2) [%]	inhibition at 2 µM (EGFR) [%]
4-oxo-5-(4-phenoxy-phenyl)-4,5-dihydro-3H-1-thia-3,5,6,8-tetraaza-acenaphthylene-2-carboxylic acid (4-morpholin-4-ylmethyl-3-trifluoromethoxy-phenyl)-amide [Cpd 240]	227	31	–	–
O=C(Nc1ccc(CN2CCCC2)cc1)c1sc2ncnc3c2c1NC(=O)N3c1ccc(F)c(Cl)c1 [Cpd 7, 5-(3-chloro-4-fluoro-phenyl)-4-oxo-4,5-dihydro-3H-1-thia-3,5,6,8-tetraaza-acenaphthylene-2-carboxylic acid (4-pyrrolidin-1-ylmethyl-phenyl)-amide]	–	7	69	–
O=C(Nc1ccc(CN2CCOCC2)cc1)c1sc2ncnc3c2c1NC(=O)N3c1ccc(F)c(Cl)c1 [Cpd 13, 5-(3-chloro-4-fluoro-phenyl)-4-oxo-4,5-dihydro-3H-1-thia-3,5,6,8-tetraaza-acenaphthylene-2-carboxylic acid (4-morpholin-1-ylmethyl-phenyl)-amide]	804	41	40	–
CN1CCN(Cc2ccc(NC(=O)c3sc4ncnc5c4c3NC(=O)N5c3ccc(F)c(Cl)c3)cc2)CC1 [Cpd 14, 5-(3-chloro-4-fluoro-phenyl)-4-oxo-4,5-dihydro-3H-1-thia-3,5,6,8-tetraaza-acenaphthylene-2-carboxylic acid [4-(4-methyl-piperazin-1-ylmethyl)-phenyl]-amide]	–	43	-1	–
C#Cc1cccc(N2C(=O)Nc3c(C(=O)Nc4ccc(CN5CCCC5)cc4)sc4ncnc2c34)c1 [Cpd 15, 5-(3-ethynyl-phenyl)-4-oxo-4,5-dihydro-3H-1-thia-3,5,6,8-tetraaza-acenaphthylene-2-carboxylic acid (4-pyrrolidin-1-ylmethyl-phenyl)-amide]	–	26	21	–
O=C(Nc1ccc(CN2CCCCC2)cc1)c1sc2ncnc3c2c1NC(=O)N3c1ccc(Cl)cc1Cl [Cpd 25, 5-(2,4-dichloro-phenyl)-4-oxo-4,5-dihydro-3H-1-thia-3,5,6,8-tetraaza-acenaphthylene-2-carboxylic acid (4-piperidin-1-ylmethyl-phenyl)-amide]	768	168	–	–
O=C(Nc1ccc(CN2CCOCC2)cc1)c1sc2ncnc3c2c1NC(=O)N3c1ccc(Cl)cc1Cl [Cpd 29, 5-(2,4-dichloro-phenyl)-4-oxo-4,5-dihydro-3H-1-thia-3,5,6,8-tetraaza-acenaphthylene-2-carboxylic acid (4-morpholin-4-ylmethyl-phenyl)-amide]	884	873	–	–
COc1ccc(N2C(=O)Nc3c(C(=O)Nc4ccc(CN5CCCCC5)cc4)sc4ncnc2c34)c(F)c1 [Cpd 66, 5-(2-fluoro-4-methoxy-phenyl)-4-oxo-4,5-dihydro-3H-1-thia-3,5,6,8-tetraaza-acenaphthylene-2-carboxylic acid (4-piperidin-1-ylmethyl-phenyl)-amide]	–	524	11	–
COc1ccc(N2C(=O)Nc3c(C(=O)Nc4ccc(OCC5CCCCO5)c(OC)c4)sc4ncnc2c34)c(F)c1 (centres unmarked) [Cpd 68, 5-(2-fluoro-4-methoxy-phenyl)-4-oxo-4,5-dihydro-3H-1-thia-3,5,6,8-tetraaza-acenaphthylene-2-carboxylic acid [3-methoxy-4-(tetrahydro-pyran-2-ylmethoxy)-phenyl]-amide]	–	690	-8	–
COc1ccc(N2C(=O)Nc3c(C(=O)Nc4ccc(OC)c(OC)c4)sc4ncnc2c34)c(F)c1 [Cpd 69, 5-(2-fluoro-4-methoxy-phenyl)-4-oxo-4,5-dihydro-3H-1-thia-3,5,6,8-tetraaza-acenaphthylene-2-carboxylic acid (3,4-dimethoxy-phenyl)-amide]	–	970	-3	–
COc1ccc(Cl)cc1N1C(=O)Nc2c(C(=O)Nc3ccc(CN4CCCCC4)cc3)sc3ncnc1c23 [Cpd 72, 5-(5-chloro-2-methoxy-phenyl)-4-oxo-4,5-dihydro-3H-1-thia-3,5,6,8-tetraaza-acenaphthylene-2-carboxylic acid (4-piperidin-1-ylmethyl-phenyl)-amide]	–	–	4	57
COc1cc(NC(=O)c2sc3ncnc4c3c2NC(=O)N4c2cc(Cl)ccc2OC)ccc1OCCN1CCCCC1 [Cpd 74, 5-(5-chloro-2-methoxy-phenyl)-4-oxo-4,5-dihydro-3H-1-thia-3,5,6,8-tetraaza-acenaphthylene-2-carboxylic acid [3-methoxy-4-(2-piperidin-1-yl-ethoxy)-phenyl]-amide]	–	–	4	56
COc1ccc(Cl)cc1N1C(=O)Nc2c(C(=O)Nc3ccc(CN(C)C[C@H]4CCCO4)cc3)sc3ncnc1c23 [Cpd 75, 5-(5-chloro-2-methoxy-phenyl)-4-oxo-4,5-dihydro-3H-1-thia-3,5,6,8-tetraaza-acenaphthylene-2-carboxylic acid [4-({methyl-[(2R)-tetrahydro-furan-2-ylmethyl]-amino}-methyl)-phenyl]-amide]	–	–	2	46
COc1cc(N2C(=O)Nc3c(C(=O)Nc4ccc(CN5CCCCC5)cc4)sc4ncnc2c34)ccc1Br [Cpd 81, 5-(4-bromo-3-methoxy-phenyl)-4-oxo-4,5-dihydro-3H-1-thia-3,5,6,8-tetraaza-acenaphthylene-2-carboxylic acid (4-piperidin-1-ylmethyl-phenyl)-amide]	695	498	–	–
COc1cc(N2C(=O)Nc3c(C(=O)Nc4ccc(CN5CCOCC5)cc4)sc4ncnc2c34)ccc1Br [Cpd 84, 5-(4-bromo-3-methoxy-phenyl)-4-oxo-4,5-dihydro-3H-1-thia-3,5,6,8-tetraaza-acenaphthylene-2-carboxylic acid (4-morpholin-4-ylmethyl-phenyl)-amide]	518	776	–	–
COc1cc(NC(=O)c2sc3ncnc4c3c2NC(=O)N4c2ccc(OCc3ccccn3)c(Cl)c2)ccc1OCCN1CCOCC1 [Cpd 86, 5-[3-chloro-4-(pyridin-2-ylmethoxy)-phenyl]-4-oxo-4,5-dihydro-3H-1-thia-3,5,6,8-tetraaza-acenaphthylene-2-carboxylic acid [3-methoxy-4-(2-morpholin-4-yl-ethoxy)-phenyl]-amide]	350	83	–	–
Cc1ccc(N2C(=O)Nc3c(C(=O)Nc4ccc(CN5CCCCC5)cc4)sc4ncnc2c34)cc1Br [Cpd 111, 5-(3-bromo-4-methyl-phenyl)-4-oxo-4,5-dihydro-3H-1-thia-3,5,6,8-tetraaza-acenaphthylene-2-carboxylic acid (4-piperidin-1-ylmethyl-phenyl)-amide]	325	29	–	–
